Reference: US8088731B2, “Use of GLP-1 compound for treatment of critically ill patients” (Novo Nordisk A/S, priority 2002, dated 2012)

What was measured:
[1] = tested on: subjects with type 2 diabetes; experiment: 12 week randomised, double-blind, dose-response, placebo controlled and open label glimepiride study of glucose lowering effect; format: in vivo, human; conditions: 12 weeks
Description: The dose of glimepiride was adjusted during the first 4 weeks based on glycaemic control with a treatment target of fasting serum glucose <7 mM, with a dose not exceeding 4 mg/day. Results

[2] = tested on: subjects with type 2 diabetes; experiment: Graded glucose infusion crossover study of beta cell sensitivity to glucose after a single dose; format: in vivo, human; conditions: single dose 7.5 μg/kg
Description: Using a graded glucose infusion protocol with plasma glucose levels matched over the range of 5 to 12 mmol/L beta cell sensitivity was assessed. Insulin secretion rates (ISR) were estimated by deconvolution of circulating C-peptide concentrations. Findings were compared to responses of 10 healthy, nondiabetic volunteers to the same glucose infusion protocol.

For `CCC1=C(C)CN(C(=O)NCCc2ccc(S(=O)(=O)NC(=O)N[C@H]3CC[C@H](C)CC3)cc2)C1=O` [glimepiride, reference compound], the “subjects that reported any hypoglycaemic episode” value ([1]; glimepiride group) was 31%, the “reduction compared to placebo on FSG” value ([1]; glimepiride p.o. once daily, open-label, titrated, not exceeding 4 mg/day) was -2.6 mM and the “reduction compared to placebo on HbA1c” value ([1]; glimepiride p.o. once daily, open-label, titrated, not exceeding 4 mg/day, p=0.0001) was 0.74%.
`CCCCCCCCCCCCCCCC(=O)N[C@@H](CCC(=O)NCCCC[C@H](NC(=O)[C@H](C)NC(=O)[C@H](C)NC(=O)[C@H](CCC(N)=O)NC(=O)CNC(=O)[C@H](CCC(=O)O)NC(=O)[C@H](CC(C)C)NC(=O)[C@H](Cc1ccc(O)cc1)NC(=O)[C@H](CO)NC(=O)[C@H](CO)NC(=O)[C@@H](NC(=O)[C@H](CC(=O)O)NC(=O)[C@H](CO)NC(=O)[C@@H](NC(=O)[C@H](Cc1ccccc1)NC(=O)[C@@H](NC(=O)CNC(=O)[C@H](CCC(=O)O)NC(=O)[C@H](C)NC(=O)[C@@H](N)Cc1cnc[nH]1)[C@@H](C)O)[C@@H](C)O)C(C)C)C(=O)N[C@@H](CCC(=O)O)C(=O)N[C@@H](Cc1ccccc1)C(=O)N[C@H](C(=O)N[C@@H](C)C(=O)N[C@@H](Cc1c[nH]c2ccccc12)C(=O)N[C@@H](CC(C)C)C(=O)N[C@H](C(=O)N[C@@H](CCCNC(=N)N)C(=O)NCC(=O)N[C@@H](CCCNC(=N)N)C(=O)NCC(=O)O)C(C)C)[C@@H](C)CC)C(=O)O` [NN2211, Arg^34, Lys^26(N^ε-(γ-Glu(N^α-hexadecanoyl)))-GLP-1(7-37)] was tested, and the “C-peptide levels compared to placebo” value ([2]; type 2 diabetes subjects) was “increased”, the hypoglycemic events ([2]; type 2 diabetes subjects) was “No hypoglycemic events occurred” and the “insulin levels compared to placebo” value ([2]; type 2 diabetes subjects) was “increased”. The “slope of ISR vs. plasma glucose” value ([2]; type 2 diabetes subjects, graded glucose infusion, p<0.014 vs placebo) was 1.26±0.36 pmol*L/(min*mmol*kg), the “insulin secretion at low glucose levels” value ([2]; versus non-diabetic controls) was “comparable to the non-diabetic controls” and the “mean serum fasting glucose decrease compared with placebo” value ([1]; 0.60 mg once daily s.c., p<0.0001) was 2.14 mmol/L. The “mean decrease compared to placebo in HbA1c” value ([1]; 0.60 mg once daily s.c., p=0.0002) was 0.70 percentage points, the “mean decrease compared to placebo in HbA1c” value ([1]; 0.75 mg once daily s.c., p<0.0001) was 0.75 percentage points and the “mean serum fasting glucose decrease compared with placebo” value ([1]; 0.75 mg once daily s.c., p=0.0003) was 1.82 mmol/L. For the same compound, the “subjects that reported any hypoglycaemic episode” value ([1]; two highest dose groups (0.60 and 0.75 mg)) was 7%.
